Measured values reported in paper PMC8325362, “Drugs repurposed for COVID-19 by virtual screening of 6,218 drugs and cell-based assay” (Proceedings of the National Academy of Sciences of the …, 2021).
Where two headings read alike, the source gives them in different places.

Key:
RdRp = tested on: RdRp; set-up: method as in ref 28 (a number printed in a supplementary file, which may have a reference list of its own: not looked up in the article's list); conditions: PDB 4WTG; read-out: Binding affinity to RdRp (IC50); cited from earlier work
Mpro = conditions: read-out: Binding affinity to Mpro (IC50); PDB 6W63; cited from earlier work
SARS-CoV-2 [1] = assay: in vitro; conditions: African green monkey
[2] = human, cited from earlier work
in vitro [3] = conditions: human
COVID-19 = conditions: cited from earlier work
in vitro [4] = conditions: African green monkey
SARS-CoV-2 [5] = assay: Checkerboard drug combination assay, SARS-CoV-2 inhibition in Vero cells; format: cell-based; conditions: Severe acute respiratory syndrome coronavirus 2, Vero, read-out: Relative viral inhibition (%); for inhibition at 0.63 µM: Remdesivir 0.63 μM; for inhibition at 1.26 µM: Remdesivir 1.26 μM; for inhibition at 2.52 µM: Remdesivir 2.52 μM; for inhibition at 5.05 µM: Remdesivir 5.05 μM; for inhibition at 10.09 µM: Remdesivir 10.09 μM; for inhibition at 20.18 µM: Remdesivir 20.18 μM; for inhibition at 40.36 µM: Remdesivir 40.36 μM; for inhibition at 0.03 µM: Omipalisib 0.03 μM; for inhibition at 0.06 µM: Omipalisib 0.06 μM; for inhibition at 0.12 µM: Omipalisib 0.12 μM; for inhibition at 0.25 µM: Omipalisib 0.25 μM; for inhibition at 0.49 µM: Omipalisib 0.49 μM; for inhibition at 0.98 µM: Omipalisib 0.98 μM; for inhibition at 1.97 µM: Omipalisib 1.97 μM
SARS-CoV-2 [6] = assay: microbe, parasite or virus in culture; format: cell-based; conditions: for IC50: Calu-3 cells, MOI 0.5, 24 h
SARS-CoV-2 [7] = assay: microbe, parasite or virus in culture; conditions: Severe acute respiratory syndrome coronavirus 2, Vero, 24 h, read-out: SARS-CoV-2 IC50 in Vero cells
SARS-CoV-2 [8] = tested on: SARS-CoV-2
[9] = Checkerboard drug combination assay, cell viability of Vero cells; conditions: African green monkey, Vero cells (ATCC CCL-81), Relative cell viability (%); for viability at 24 h, 0.63 μM: Remdesivir 0.63 μM; for viability at 24 h, 1.26 μM: Remdesivir 1.26 μM; for viability at 24 h, 2.52 μM: Remdesivir 2.52 μM; for viability at 24 h, 5.05 μM: Remdesivir 5.05 μM; for viability at 24 h, 10.09 μM: Remdesivir 10.09 μM; for viability at 24 h, 20.18 μM: Remdesivir 20.18 μM; for viability at 24 h, 40.36 μM: Remdesivir 40.36 μM
in vitro [10] = conditions: African green monkey, Relative cell viability (%)
M^pro = M^pro (Severe acute respiratory syndrome coronavirus 2, UniProt P0DTD1); format: biochemical; conditions: FRET assay, 0.1 to 50 μM
SARS-CoV-2 RdRp = SARS-CoV-2 RdRp (Severe acute respiratory syndrome coronavirus 2, UniProt P0DTD1); assay: RdRp enzyme assay kit; format: biochemical; set-up: dose or concentration left out as unconfirmed; conditions: positive control, even at high concentrations
[11] = Severe acute respiratory syndrome coronavirus 2, Calu-3, 24 h

## CC(C)OC(=O)[C@H](C)N[P@](=O)(OC[C@H]1O[C@@H](n2ccc(=O)[nH]c2=O)[C@](C)(F)[C@@H]1O)Oc1ccccc1 [6GS (sofosbuvir)]
RdRp
  IC50: 64 nM

## CC(C)(C)c1ccc(N(C(=O)c2cnc[nH]2)[C@@H](C(=O)NC2CCCCC2)c2cccnc2)cc1 [X77]
Mpro
  IC50: 2300 nM

## CCC(CC)COC(=O)[C@H](C)N[P@](=O)(OC[C@H]1O[C@@](C#N)(c2ccc3c(N)ncnn23)[C@H](O)[C@@H]1O)Oc1ccccc1 [Remdesivir]
SARS-CoV-2 [1]
  selectivity ratio: 4.96
[2]; read-out: Approx. Cmax (maximum serum concentration), intravenous injection
  Cmax: ~9 µM
In vitro [3]
  CC50: > 50000 nM
COVID-19; 36 out of 53 patients with severe illness
  patients with clinical improvement: 68%
COVID-19; COVID-19 patients, vs 15 d placebo
  average recovery time: 11 days
COVID-19; severe COVID-19 patients
  clinical benefits: no statistically significant clinical benefits
In vitro [4]
  CC50: > 50000 nM
SARS-CoV-2 [5]; Fig. 4A, Omipalisib 0.00 μM
  inhibition at 0.63 µM: 4%
  inhibition at 1.26 µM: 4%
  inhibition at 2.52 µM: 1%
  inhibition at 5.05 µM: 20%
  inhibition at 10.09 µM: 55%
  inhibition at 20.18 µM: 81%
  inhibition at 40.36 µM: 89%
SARS-CoV-2 [5]; Fig. 4G, Tipifarnib 0.00 μM
  inhibition at 0.63 µM: 1%
  inhibition at 1.26 µM: 3%
  inhibition at 2.52 µM: 16%
  inhibition at 5.05 µM: 54%
  inhibition at 10.09 µM: 91%
  inhibition at 20.18 µM: 97%
  inhibition at 40.36 µM: 98%
SARS-CoV-2 [6]; [11]
  IC50: 2490 nM
SARS-CoV-2 [7]
  IC50: 10100 nM
SARS-CoV-2 [8]; assay validation with reference drugs
  antiviral activity against SARS-CoV-2 in Vero cells: showed antiviral activity
[9]; Fig. 4B, Omipalisib 0.00 μM
  viability at 24 h, 0.63 μM: 86%
  viability at 24 h, 1.26 μM: 87%
  viability at 24 h, 2.52 μM: 87%
  viability at 24 h, 5.05 μM: 91%
  viability at 24 h, 10.09 μM: 92%
  viability at 24 h, 20.18 μM: 93%
  viability at 24 h, 40.36 μM: 93%
[9]; Fig. 4H, Tipifarnib 0.00 μM
  viability at 24 h, 0.63 μM: 88%
  viability at 24 h, 1.26 μM: 90%
  viability at 24 h, 2.52 μM: 94%
  viability at 24 h, 5.05 μM: 97%
  viability at 24 h, 10.09 μM: 95%
  viability at 24 h, 20.18 μM: 98%
  viability at 24 h, 40.36 μM: 94%

## COc1ncc(-c2ccc3nccc(-c4ccnnc4)c3c2)cc1NS(=O)(=O)c1ccc(F)cc1F [Omipalisib]
SARS-CoV-2 [1]
  selectivity ratio: 62.8
In vitro [10]; Fig. 4B, Omipalisib 0.03 μM, Remdesivir 0.00 μM
  viability: 82%
In vitro [10]; Fig. 4B, Omipalisib 0.06 μM, Remdesivir 0.00 μM
  viability: 82%
In vitro [10]; Fig. 4B, Omipalisib 0.12 μM, Remdesivir 0.00 μM
  viability: 80%
In vitro [10]; Fig. 4B, Omipalisib 0.25 μM, Remdesivir 0.00 μM
  viability: 81%
In vitro [10]; Fig. 4B, Omipalisib 0.49 μM, Remdesivir 0.00 μM
  viability: 80%
In vitro [10]; Fig. 4B, Omipalisib 0.98 μM, Remdesivir 0.00 μM
  viability: 81%
In vitro [10]; Fig. 4B, Omipalisib 1.97 μM, Remdesivir 0.00 μM
  viability: 80%
In vitro [10]; Fig. 4E, Tipifarnib 0.00 μM, Omipalisib 0.03 μM
  viability: 87%
In vitro [10]; Fig. 4E, Tipifarnib 0.00 μM, Omipalisib 0.06 μM
  viability: 89%
In vitro [10]; Fig. 4E, Tipifarnib 0.00 μM, Omipalisib 0.12 μM
  viability: 88%
In vitro [10]; Fig. 4E, Tipifarnib 0.00 μM, Omipalisib 0.25 μM
  viability: 88%
In vitro [10]; Fig. 4E, Tipifarnib 0.00 μM, Omipalisib 0.49 μM
  viability: 88%
In vitro [10]; Fig. 4E, Tipifarnib 0.00 μM, Omipalisib 0.98 μM
  viability: 87%
In vitro [10]; Fig. 4E, Tipifarnib 0.00 μM, Omipalisib 1.97 μM
  viability: 84%
[2]; in vivo, po
  Cmax: ~0.3 µM
In vitro [3]
  CC50 at 24 h: > 20 nM
In vitro [4]
  CC50 at 24 h: 30800 nM
SARS-CoV-2 [5]; Fig. 4A, Remdesivir 0.00 μM
  inhibition at 0.03 µM: 6%
  inhibition at 0.06 µM: 6%
  inhibition at 0.12 µM: 15%
  inhibition at 0.25 µM: 29%
  inhibition at 0.49 µM: 63%
  inhibition at 0.98 µM: 73%
  inhibition at 1.97 µM: 78%
SARS-CoV-2 [5]; Fig. 4D, Tipifarnib 0.00 μM
  inhibition at 0.03 µM: 11%
  inhibition at 0.06 µM: 31%
  inhibition at 0.12 µM: 60%
  inhibition at 0.25 µM: 90%
  inhibition at 0.49 µM: 93%
  inhibition at 0.98 µM: 95%
  inhibition at 1.97 µM: 95%
M^pro
  inhibitory activity against M^pro: showed no inhibitory activity
SARS-CoV-2 [6]; Calu-3
  fold higher activity than remdesivir: 200 fold
SARS-CoV-2 [6]
  IC50: 10 nM
SARS-CoV-2 [6]; Calu-3 vs Vero
  fold lower IC50 in Calu-3 cells than in Vero cells: 49 fold
SARS-CoV-2 [6]; [11]
  IC50: 10 nM
SARS-CoV-2 [7]
  IC50: 490 nM
SARS-CoV-2 [8]; Vero cells
  fold higher antiviral activity than remdesivir: 20 fold

## N#C[C@@]1(c2ccc3c(N)ncnn23)O[C@H](COP(=O)(O)OP(=O)(O)OP(=O)(O)O)[C@@H](O)[C@H]1O [RDV-TP, remdesivir triphosphate]
SARS-CoV-2 RdRp
  activity in RdRp assay: did not show activity
